Measurements from PubChem BioAssay AID2060500 (Molecular Pharmacology Branch, DTP, NCI, 2025).

Tested on: 596521-263-R-J1-PDC complex spheroids, viability % of control
Test: Anticancer human tumor 596521-263-R-J1-PDC patient-derived soft tissue sarcoma cell line growth inhibition [GQUAD]
Details: for IC50: curve of first compound; for viability, T/C: stronger effect = lower value; active means viability on the fitted dose curve at most 10% of control; inactive means the rest
Outline: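 Tumor cells were grown as complex spheroids with HUVEC endothelial cells and mesenchymal stem cells as stroma. G-quadruplex stabilizers were combined with targeted agents over half-log dilutions from near the clinical Cmax, or from 10 microM.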

[1] = second compound 0.0316 µM, first compound 0.0316 µM
[2] = second compound 0.0316 µM, first compound 0.1 µM
[3] = second compound 0.0316 µM, first compound 0.316 µM
[4] = second compound 0.0316 µM, first compound 1 µM
[5] = second compound 0.0316 µM, first compound 3.16 µM
[6] = second compound 0.0316 µM, first compound 10 µM
[7] = second compound 0.1 µM, first compound 0.0316 µM
[8] = second compound 0.1 µM, first compound 0.1 µM
[9] = second compound 0.1 µM, first compound 0.316 µM
[10] = second compound 0.1 µM, first compound 1 µM
[11] = second compound 0.1 µM, first compound 3.16 µM
[12] = second compound 0.1 µM, first compound 10 µM
[13] = second compound 0.316 µM, first compound 0.0316 µM
[14] = second compound 0.316 µM, first compound 0.1 µM
[15] = second compound 0.316 µM, first compound 0.316 µM
[16] = second compound 0.316 µM, first compound 1 µM
[17] = second compound 0.316 µM, first compound 3.16 µM
[18] = second compound 0.316 µM, first compound 10 µM
[19] = second compound 1 µM, first compound 0.0316 µM
[20] = second compound 1 µM, first compound 0.1 µM
[21] = second compound 1 µM, first compound 0.316 µM
[22] = second compound 1 µM, first compound 1 µM
[23] = second compound 1 µM, first compound 3.16 µM
[24] = second compound 1 µM, first compound 10 µM
[25] = second compound 3.16 µM, first compound 0.0316 µM
[26] = second compound 3.16 µM, first compound 0.1 µM
[27] = second compound 3.16 µM, first compound 0.316 µM
[28] = second compound 3.16 µM, first compound 1 µM
[29] = second compound 3.16 µM, first compound 3.16 µM
[30] = second compound 3.16 µM, first compound 10 µM
[31] = second compound 10 µM, first compound 0.0316 µM
[32] = second compound 10 µM, first compound 0.1 µM
[33] = second compound 10 µM, first compound 0.316 µM
[34] = second compound 10 µM, first compound 1 µM
[35] = second compound 10 µM, first compound 3.16 µM
[36] = second compound 10 µM, first compound 10 µM
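Further: spheroids exposed to drugs for 7 days before viability reading.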
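Wherever viability, T/C is given: 100% = DMSO vehicle control viability.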

C=CCn1c(=O)c2cnc(Nc3ccc(N4CCN(C)CC4)cc3)nc2n1-c1cccc(C(C)(C)O)n1 + Cc1cnc(CNC(=O)c2c(=O)c3ccc(N4CCCN(C)CC4)nc3n3c2sc2ccccc23)cn1
196 nM: IC50 (second compound 3.16 µM)
343 nM: IC50 (second compound 0.316 µM)
592 nM: IC50 (second compound 1 µM)
< 31.6 nM: IC50 (second compound 10 µM)
481 nM: IC50 (second compound 0.1 µM)
inactive: viability, T/C [1] 88.4% | viability, T/C [2] 79.2% | viability, T/C [3] 61.2% | viability, T/C [4] 48.8% | viability, T/C [5] 32.6% | viability, T/C [6] 31.4% | viability, T/C [7] 78.3% | viability, T/C [8] 72.9% | viability, T/C [9] 55.3% | viability, T/C [10] 40.8% | viability, T/C [11] 38.3% | viability, T/C [12] 40.8% | viability, T/C [13] 84.8% | viability, T/C [14] 62.2% | viability, T/C [15] 50.7% | viability, T/C [16] 40.9% | viability, T/C [17] 38.5% | viability, T/C [18] 26.8% | viability, T/C [19] 62.9% | viability, T/C [20] 60% | viability, T/C [21] 58.4% | viability, T/C [22] 41.9% | viability, T/C [23] 36.5% | viability, T/C [24] 24.3% | viability, T/C [25] 50.6% | viability, T/C [26] 54.3% | viability, T/C [27] 49.1% | viability, T/C [28] 39.1% | viability, T/C [29] 32.7% | viability, T/C [30] 25.6% | viability, T/C [31] 43.4% | viability, T/C [32] 12.9% | viability, T/C [33] 36.4% | viability, T/C [34] 33.8% | viability, T/C [35] 20.8% | viability, T/C [36] 0.23%
769 nM: IC50 (second compound 0.0316 µM)

CC[C@@]1(O)C(=O)OCc2c1cc1n(c2=O)Cc2cc3c(CN(C)C)c(O)ccc3nc2-1 + Cc1[nH]c2ccc(F)cc2c1-c1nc2c3cccnc3c3ncccc3c2[nH]1
> 316 nM: IC50 (second compound 0.0316 µM) | IC50 (second compound 0.1 µM) | IC50 (second compound 1 µM) | IC50 (second compound 10 µM)
inactive: viability, T/C (second compound 0.0316 µM, first compound 0.000999 µM) 98.3% | viability, T/C (second compound 0.0316 µM, first compound 0.00316 µM) 100% | viability, T/C (second compound 0.0316 µM, first compound 0.00999 µM) 84% | viability, T/C [1] 69.5% | viability, T/C (second compound 0.0316 µM, first compound 0.0999 µM) 64.3% | viability, T/C [3] 58.7% | viability, T/C (second compound 0.1 µM, first compound 0.000999 µM) 103% | viability, T/C (second compound 0.1 µM, first compound 0.00316 µM) 99.1% | viability, T/C (second compound 0.1 µM, first compound 0.00999 µM) 92.5% | viability, T/C [7] 65.6% | viability, T/C (second compound 0.1 µM, first compound 0.0999 µM) 59.6% | viability, T/C [9] 53.5% | viability, T/C (second compound 0.316 µM, first compound 0.000999 µM) 96.8% | viability, T/C (second compound 0.316 µM, first compound 0.00316 µM) 103% | viability, T/C (second compound 0.316 µM, first compound 0.00999 µM) 90.7% | viability, T/C [13] 78.5% | viability, T/C (second compound 0.316 µM, first compound 0.0999 µM) 61% | viability, T/C [15] 49% | viability, T/C (second compound 1 µM, first compound 0.000999 µM) 103% | viability, T/C (second compound 1 µM, first compound 0.00316 µM) 109% | viability, T/C (second compound 1 µM, first compound 0.00999 µM) 79.7% | viability, T/C [19] 65.7% | viability, T/C (second compound 1 µM, first compound 0.0999 µM) 58% | viability, T/C [21] 51.4% | viability, T/C (second compound 3.16 µM, first compound 0.000999 µM) 86.4% | viability, T/C (second compound 3.16 µM, first compound 0.00316 µM) 84.1% | viability, T/C (second compound 3.16 µM, first compound 0.00999 µM) 81.6% | viability, T/C [25] 67.6% | viability, T/C (second compound 3.16 µM, first compound 0.0999 µM) 63.2% | viability, T/C [27] 48.2% | viability, T/C (second compound 10 µM, first compound 0.000999 µM) 85.5% | viability, T/C (second compound 10 µM, first compound 0.00316 µM) 89.9% | viability, T/C (second compound 10 µM, first compound 0.00999 µM) 70.4% | viability, T/C [31] 59.3% | viability, T/C (second compound 10 µM, first compound 0.0999 µM) 60.9% | viability, T/C [33] 50.3%
291 nM: IC50 (second compound 0.316 µM)
277 nM: IC50 (second compound 3.16 µM)

O=C(NO)c1cnc(N2CCN(S(=O)(=O)c3ccc4ccccc4c3)CC2)nc1 + CN(C)c1ccc(Nc2c3ccc(NC(=O)CCN4CCCC4)cc3nc3cc(NC(=O)CCN4CCCC4)ccc23)cc1
active: viability, T/C [3] 7.95% | viability, T/C [4] 0.72% | viability, T/C [5] 0.35% | viability, T/C [6] 0.33% | viability, T/C [9] 9.87% | viability, T/C [10] 0.62% | viability, T/C [11] 0.38% | viability, T/C [12] 0.34% | viability, T/C [15] 7.1% | viability, T/C [16] 0.61% | viability, T/C [17] 0.29% | viability, T/C [18] 0.34% | viability, T/C [21] 7.49% | viability, T/C [22] 0.53% | viability, T/C [23] 0.35% | viability, T/C [24] 1.39% | viability, T/C [27] 7.07% | viability, T/C [28] 0.61% | viability, T/C [29] 0.37% | viability, T/C [30] 0.78% | viability, T/C [33] 3.88% | viability, T/C [34] 0.37% | viability, T/C [35] 0.37% | viability, T/C [36] 0.34%
97.3 nM: IC50 (second compound 0.1 µM)
inactive: viability, T/C [1] 77.3% | viability, T/C [2] 54.4% | viability, T/C [7] 76.3% | viability, T/C [8] 49.4% | viability, T/C [13] 76.5% | viability, T/C [14] 60.9% | viability, T/C [19] 74.4% | viability, T/C [20] 54.7% | viability, T/C [25] 65.4% | viability, T/C [26] 45.4% | viability, T/C [31] 48.2% | viability, T/C [32] 35.6%
76.9 nM: IC50 (second compound 3.16 µM)
126 nM: IC50 (second compound 0.316 µM)
112 nM: IC50 (second compound 0.0316 µM) | IC50 (second compound 1 µM)
< 31.6 nM: IC50 (second compound 10 µM)
